Source: US20260365670A1, “EGFR INHIBITORS AND USES THEREOF” (DIZAL (JIANGSU) PHARMACEUTICAL CO., LTD., priority 2022, published 2026)
Where two headings read alike, the source gives them in different places.

Experiments:
[1] = system: A-431; assay: Cell proliferation assay, A-431 cells (GI50, Table 6); type: cell-based
[2] = molecular target: T1, EGFR[T790M/C797S/d746-750] (Homo sapiens, UniProt P00533, C797S/DEL746-750/T790M); assay: Inhibition of EGFR[T790M/C797S/d746-750] biochemical enzymatic activity (HTRF)
T1 construct: purchased Carna Bio
How it was run: (§1)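 Kinase activity is measured by HTRF detection of biotinylated TK substrate (1 μM) phosphorylation at 1 mM ATP. Incubation lasts 1 h at room temperature before an EDTA stop, and IC50 is fitted with a four-parameter logistic model.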

[3] = system: PC-9; assay: Cell proliferation assay, PC-9 cells (CellTiter-Glo, 72 hours); type: cell-based; conditions: PC9 cells, read-out: GI50 PC9
How it was run: (§2)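 GI50 is the concentration giving 50% proliferation inhibition. Growth for this was normalised to a baseline viability reading taken when compound was added, and to DMSO wells. PC-9 (500 cells/well) and mutant-EGFR Ba/F3 (5000 cells/well) are treated after overnight seeding in RPMI1640-based medium.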

[4] = molecular target: T2, EGFR L858R (Homo sapiens, UniProt P00533, L858R); assay: Inhibition of EGFR L858R biochemical enzymatic activity (HTRF); conditions: 1 mM ATP
T2 construct: purchased Carna Bio
How it was run: as §1

[5] = molecular target: T3, EGFR wild type (Homo sapiens, UniProt P00533); assay: Inhibition of EGFR wild type biochemical enzymatic activity (HTRF); conditions: 1 mM ATP
T3 construct: purchased Carna Bio
How it was run: as §1

[6] = molecular target: T4, EGFR Exon19Del/T790M (Homo sapiens, UniProt P00533, DEL746-750/T790M); assay: Inhibition of EGFR Exon19Del/T790M biochemical enzymatic activity (HTRF); conditions: 1 mM ATP
T4 construct: purchased Carna Bio
How it was run: as §1

[7] = molecular target: T5, EGFR[T790M/C797S/L858R] (Homo sapiens, UniProt P00533, C797S/L858R/T790M); assay: Inhibition of EGFR[T790M/C797S/L858R] biochemical enzymatic activity (HTRF); conditions: 1 mM ATP
T5 construct: purchased Carna Bio
How it was run: as §1

[8] = molecular target: T6, EGFR L858R/T790M (Homo sapiens, UniProt P00533, L858R/T790M); assay: Inhibition of EGFR L858R/T790M biochemical enzymatic activity (HTRF); conditions: 1 mM ATP
T6 construct: purchased Carna Bio
How it was run: as §1

[9] = molecular target: T7, EGFR (C797S L858R) (Homo sapiens, UniProt P00533, C797S/L858R); assay: Inhibition of EGFR (C797S L858R) biochemical enzymatic activity (HTRF); conditions: 1 mM ATP
T7 construct: purchased signalchem
How it was run: as §1

[10] = molecular target: T8, EGFR (d746-750 C797S) (Homo sapiens, UniProt P00533, C797S/DEL746-750); assay: Inhibition of EGFR (d746-750 C797S) biochemical enzymatic activity (HTRF); conditions: 1 mM ATP
T8 construct: purchased signalchem
How it was run: as §1

[11] = system: Ba/F3 cells expressing EGFR mutations; assay: Cell proliferation assay, Ba/F3 cells expressing EGFR mutations (CellTiter-Glo, 72 hours); type: cell-based
How it was run: as §2

[12] = molecular target: T9, EGFR Exon19Del (Homo sapiens, UniProt P00533, DEL746-750); assay: Inhibition of EGFR Exon19Del biochemical enzymatic activity (HTRF); conditions: read-out: IC50 @Del19
T9 construct: purchased Carna Bio
How it was run: as §1

[13] = Homo sapiens, A-431, A-431 cells
[14] = EGFR[T790M/C797S/d746-750], 1 mM ATP, 1 h at room temperature, read-out: IC50 @T790M - C797S - Del19
[15] = 1 h at room temperature, read-out: IC50 @L858R
[16] = EGFR wild type, 1 h at room temperature, read-out: IC50 @WT
[17] = EGFR Exon19Del/T790M, 1 h at room temperature, read-out: IC50 @Del19-T790M
[18] = EGFR[T790M/C797S/L858R], 1 h at room temperature, read-out: IC50 @T790M- C797S - L858R
[19] = EGFR L858R/T790M, 1 h at room temperature, read-out: IC50 @L858R-T790M
[20] = EGFR (C797S L858R), 1 h at room temperature, read-out: IC50 @L858-C797S
[21] = EGFR (d746-750 C797S), 1 h at room temperature, read-out: IC50 @Del19-C797S
[22] = Mus musculus, BaF3, 72 h, BaF3 cells, EGFR DEL19 - C797S, read-out: GI50 DEL19 - C797S/BaF3
[23] = Mus musculus, BaF3, 72 h, BaF3 cells, EGFR DEL19 - T790-C797S, read-out: GI50 DEL19 - T790-C797S/BaF3
[24] = Mus musculus, BaF3, 72 h, BaF3 cells, EGFR L858R - C797S, read-out: GI50 L858R - C797S/BaF3
[25] = Mus musculus, BaF3, 72 h, BaF3 cells, EGFR L858R - T790-C797S, read-out: GI50 L858R - T790-C797S/BaF3
[26] = Mus musculus, BaF3, 72 h, BaF3 cells, EGFR L858R - T790M, read-out: GI50 L858R - T790M/BaF3
[27] = Mus musculus, BaF3, 72 h, BaF3 cells, EGFR L858R, read-out: GI50 L858R/BaF3
[28] = Mus musculus, BaF3, 72 h, EGFR DEL19 - T790M, read-out: GI50 DEL19 - T790M
[29] = EGFR Exon19Del, 1 mM ATP, 1 h at room temperature
[30] = BaF3 cells, EGFR DEL19 - C797S, read-out: GI50 DEL19 - C797S/BaF3
[31] = BaF3 cells, EGFR DEL19 - T790-C797S, read-out: GI50 DEL19 - T790-C797S/BaF3
[32] = BaF3 cells, EGFR L858R - C797S, read-out: GI50 L858R - C797S/BaF3
[33] = BaF3 cells, EGFR L858R - T790-C797S, read-out: GI50 L858R - T790-C797S/BaF3
[34] = BaF3 cells, EGFR L858R - T790M, read-out: GI50 L858R - T790M/BaF3
[35] = BaF3 cells, EGFR L858R, read-out: GI50 L858R/BaF3
[36] = EGFR DEL19 - T790M, read-out: GI50 DEL19 - T790M

T3 sequence (P00533 25-1210): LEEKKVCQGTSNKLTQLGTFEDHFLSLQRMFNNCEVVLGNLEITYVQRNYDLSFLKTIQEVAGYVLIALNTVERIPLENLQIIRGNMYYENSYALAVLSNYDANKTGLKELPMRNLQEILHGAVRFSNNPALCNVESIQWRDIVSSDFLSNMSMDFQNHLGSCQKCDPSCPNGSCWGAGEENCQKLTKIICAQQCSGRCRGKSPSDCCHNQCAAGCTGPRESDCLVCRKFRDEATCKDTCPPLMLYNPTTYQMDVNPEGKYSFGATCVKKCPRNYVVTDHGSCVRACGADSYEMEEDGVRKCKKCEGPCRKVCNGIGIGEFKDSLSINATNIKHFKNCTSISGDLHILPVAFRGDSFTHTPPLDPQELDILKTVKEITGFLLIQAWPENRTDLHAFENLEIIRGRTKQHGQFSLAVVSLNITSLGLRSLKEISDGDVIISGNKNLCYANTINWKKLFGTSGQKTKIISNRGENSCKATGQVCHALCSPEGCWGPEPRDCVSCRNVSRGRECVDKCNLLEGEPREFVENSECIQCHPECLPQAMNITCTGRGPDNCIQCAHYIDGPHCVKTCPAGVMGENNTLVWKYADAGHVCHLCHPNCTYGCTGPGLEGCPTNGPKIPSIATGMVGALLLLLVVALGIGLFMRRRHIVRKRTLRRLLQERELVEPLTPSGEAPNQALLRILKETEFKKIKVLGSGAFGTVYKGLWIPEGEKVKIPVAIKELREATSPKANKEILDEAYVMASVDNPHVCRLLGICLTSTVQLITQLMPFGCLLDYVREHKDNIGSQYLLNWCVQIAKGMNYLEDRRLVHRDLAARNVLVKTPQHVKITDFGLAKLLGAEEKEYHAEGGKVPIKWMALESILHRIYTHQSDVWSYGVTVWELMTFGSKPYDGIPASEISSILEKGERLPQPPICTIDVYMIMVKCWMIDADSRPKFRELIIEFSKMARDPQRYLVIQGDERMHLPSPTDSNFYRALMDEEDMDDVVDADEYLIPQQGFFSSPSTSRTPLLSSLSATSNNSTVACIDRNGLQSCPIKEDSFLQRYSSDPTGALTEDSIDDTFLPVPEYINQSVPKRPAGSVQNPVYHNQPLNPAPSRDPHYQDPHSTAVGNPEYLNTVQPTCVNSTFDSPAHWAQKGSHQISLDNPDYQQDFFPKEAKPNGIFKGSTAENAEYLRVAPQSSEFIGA
T8 sequence (P00533 with tags, fused parts or gaps DEL746-750/C797S limits assumed): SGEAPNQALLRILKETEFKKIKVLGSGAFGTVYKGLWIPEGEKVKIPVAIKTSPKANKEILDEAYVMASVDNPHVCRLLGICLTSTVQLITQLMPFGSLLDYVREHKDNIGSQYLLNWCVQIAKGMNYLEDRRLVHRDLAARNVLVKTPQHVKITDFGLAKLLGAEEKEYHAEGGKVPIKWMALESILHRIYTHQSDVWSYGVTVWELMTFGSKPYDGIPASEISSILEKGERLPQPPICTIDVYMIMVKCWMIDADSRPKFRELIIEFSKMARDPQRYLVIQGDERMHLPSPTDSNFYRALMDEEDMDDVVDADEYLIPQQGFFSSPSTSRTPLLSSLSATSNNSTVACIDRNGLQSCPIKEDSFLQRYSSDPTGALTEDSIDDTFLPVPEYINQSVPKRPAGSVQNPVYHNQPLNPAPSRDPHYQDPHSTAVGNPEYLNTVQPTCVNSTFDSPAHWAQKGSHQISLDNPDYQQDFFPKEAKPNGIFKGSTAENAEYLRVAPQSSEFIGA
T4 sequence (P00533 with tags, fused parts or gaps DEL746-750/T790M limits assumed): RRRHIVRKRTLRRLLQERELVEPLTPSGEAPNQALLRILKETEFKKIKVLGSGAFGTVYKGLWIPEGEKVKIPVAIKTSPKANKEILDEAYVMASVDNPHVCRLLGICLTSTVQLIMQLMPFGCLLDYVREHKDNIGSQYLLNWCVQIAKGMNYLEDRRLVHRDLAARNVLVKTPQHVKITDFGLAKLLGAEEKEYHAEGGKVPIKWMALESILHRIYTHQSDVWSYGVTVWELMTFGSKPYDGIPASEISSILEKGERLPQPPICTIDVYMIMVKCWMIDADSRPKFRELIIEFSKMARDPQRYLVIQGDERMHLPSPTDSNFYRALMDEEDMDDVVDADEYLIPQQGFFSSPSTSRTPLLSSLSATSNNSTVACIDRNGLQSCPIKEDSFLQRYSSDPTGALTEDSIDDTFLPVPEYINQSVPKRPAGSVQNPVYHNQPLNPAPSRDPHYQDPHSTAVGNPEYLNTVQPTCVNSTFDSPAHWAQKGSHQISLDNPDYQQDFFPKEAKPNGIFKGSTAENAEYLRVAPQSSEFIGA
T1 sequence (P00533 with tags, fused parts or gaps DEL746-750/T790M/C797S limits assumed): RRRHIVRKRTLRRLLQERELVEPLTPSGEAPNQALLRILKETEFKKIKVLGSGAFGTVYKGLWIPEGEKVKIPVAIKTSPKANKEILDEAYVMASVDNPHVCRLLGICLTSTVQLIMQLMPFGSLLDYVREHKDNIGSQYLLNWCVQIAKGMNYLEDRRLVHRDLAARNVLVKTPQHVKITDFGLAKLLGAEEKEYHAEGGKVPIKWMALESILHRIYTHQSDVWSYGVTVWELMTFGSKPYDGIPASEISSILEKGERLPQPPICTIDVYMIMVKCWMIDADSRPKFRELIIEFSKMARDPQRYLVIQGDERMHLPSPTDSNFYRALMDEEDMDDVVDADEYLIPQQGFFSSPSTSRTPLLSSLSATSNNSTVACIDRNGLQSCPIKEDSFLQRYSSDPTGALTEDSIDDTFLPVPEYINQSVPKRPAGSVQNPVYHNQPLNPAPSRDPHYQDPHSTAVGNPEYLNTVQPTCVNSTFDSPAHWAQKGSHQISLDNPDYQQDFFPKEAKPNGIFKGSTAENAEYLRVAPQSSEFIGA
T5 sequence (P00533 25-1210 T790M/C797S/L858R): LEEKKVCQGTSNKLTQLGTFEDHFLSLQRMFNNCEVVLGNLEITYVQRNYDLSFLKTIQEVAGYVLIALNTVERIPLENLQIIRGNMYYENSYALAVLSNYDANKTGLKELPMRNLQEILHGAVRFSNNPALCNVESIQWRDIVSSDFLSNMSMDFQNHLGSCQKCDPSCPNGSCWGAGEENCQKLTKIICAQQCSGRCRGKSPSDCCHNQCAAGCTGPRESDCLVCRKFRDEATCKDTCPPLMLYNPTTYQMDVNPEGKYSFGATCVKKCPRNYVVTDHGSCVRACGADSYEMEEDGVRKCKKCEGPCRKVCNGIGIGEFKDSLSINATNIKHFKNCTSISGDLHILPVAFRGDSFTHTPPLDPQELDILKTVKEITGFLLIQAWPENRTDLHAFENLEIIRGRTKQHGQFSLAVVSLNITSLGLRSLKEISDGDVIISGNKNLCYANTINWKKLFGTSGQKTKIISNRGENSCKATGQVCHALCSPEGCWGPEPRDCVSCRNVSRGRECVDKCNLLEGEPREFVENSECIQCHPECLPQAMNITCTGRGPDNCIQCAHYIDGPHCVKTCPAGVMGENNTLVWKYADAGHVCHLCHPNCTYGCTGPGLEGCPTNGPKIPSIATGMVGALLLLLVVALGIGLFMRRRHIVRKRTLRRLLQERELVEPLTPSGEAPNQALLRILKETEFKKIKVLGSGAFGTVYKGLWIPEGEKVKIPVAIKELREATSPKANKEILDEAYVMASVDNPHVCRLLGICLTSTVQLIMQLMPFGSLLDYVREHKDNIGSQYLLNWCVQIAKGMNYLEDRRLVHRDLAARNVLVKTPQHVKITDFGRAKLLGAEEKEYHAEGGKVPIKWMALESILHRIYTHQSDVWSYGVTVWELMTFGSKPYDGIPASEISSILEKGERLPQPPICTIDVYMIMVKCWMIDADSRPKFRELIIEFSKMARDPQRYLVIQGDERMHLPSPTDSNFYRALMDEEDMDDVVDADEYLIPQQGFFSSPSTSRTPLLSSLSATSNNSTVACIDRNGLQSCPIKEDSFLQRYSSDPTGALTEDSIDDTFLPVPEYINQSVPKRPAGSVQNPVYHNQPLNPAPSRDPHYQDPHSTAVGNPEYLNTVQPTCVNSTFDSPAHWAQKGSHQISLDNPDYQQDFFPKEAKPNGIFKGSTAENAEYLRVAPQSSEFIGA
T9 sequence (P00533 with tags, fused parts or gaps DEL746-750 limits assumed): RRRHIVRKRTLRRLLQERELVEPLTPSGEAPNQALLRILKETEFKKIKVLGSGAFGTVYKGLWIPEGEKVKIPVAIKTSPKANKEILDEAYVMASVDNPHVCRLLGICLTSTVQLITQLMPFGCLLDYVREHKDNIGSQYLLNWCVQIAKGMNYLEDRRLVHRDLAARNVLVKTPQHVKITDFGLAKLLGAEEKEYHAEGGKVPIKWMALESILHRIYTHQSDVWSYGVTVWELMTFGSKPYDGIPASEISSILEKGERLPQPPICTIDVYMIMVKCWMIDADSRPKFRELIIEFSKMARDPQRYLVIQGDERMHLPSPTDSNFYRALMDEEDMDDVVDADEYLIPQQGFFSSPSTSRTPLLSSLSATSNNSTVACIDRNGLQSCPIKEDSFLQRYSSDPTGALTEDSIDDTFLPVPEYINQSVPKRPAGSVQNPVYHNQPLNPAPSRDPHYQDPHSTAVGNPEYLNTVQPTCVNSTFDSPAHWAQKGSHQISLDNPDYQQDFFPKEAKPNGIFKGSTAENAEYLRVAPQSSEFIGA

GI50 [1, 13] [nM]	IC50 [2, 14] [nM]	GI50 ([3]; Homo sapiens, PC-9, 72 h) [nM]	IC50 [4, 15] [nM]	IC50 [5, 16] [nM]	IC50 [6, 17] [nM]	IC50 [7, 18] [nM]	IC50 [8, 19] [nM]	IC50 [9, 20] [nM]	IC50 [10, 21] [nM]	GI50 [11, 22] [nM]	GI50 [11, 23] [nM]	GI50 [11, 24] [nM]	GI50 [11, 25] [nM]	GI50 [11, 26] [nM]	GI50 [11, 27] [nM]	GI50 [11, 28] [nM]	IC50 [12, 29] [nM]	GI50 [3] [nM]	GI50 [11, 30] [nM]	SMILES	other results
3740	3	75	214	> 5000	9.9	6.2	20	131	22	10	3	69	7	13	62	4	28			Cc1cc2cc(n1)-c1cnn(C)c1OCCN1CC3CCC(CC3)(C1)n1c(nc3ccc(N(C)CCCN(C)C)cc31)NC2=O [Example B33]	
3740		35								7.9	43	34	21	64	7	30				CN(C)CCCN(C)c1ccc2nc3n(c2c1)C12CCC(CC1)CN(CCOc1c(cnn1C)-c1cc(cn(C)c1=O)C(=O)N3)C2 [Example A125]	IC50 ([2]; EGFR T790M-C797S-Del19, 1 mM ATP, 1 h, room temperature, read-out: IC50 (nM) @T790M - C797S - Del19): 15 nM; IC50 ([4]; 1 h, room temperature, read-out: IC50 (nM) @L858R): 189 nM; IC50 ([5]; EGFR WT, 1 h, room temperature, read-out: IC50 (nM) @WT): 4060 nM; IC50 ([6]; EGFR Del19-T790M, 1 h, room temperature, read-out: IC50 (nM) @Del19-T790M): 18 nM; IC50 ([7]; EGFR T790M-C797S-L858R, 1 h, room temperature, read-out: IC50 (nM) @T790M- C797S - L858R): 359 nM; IC50 ([8]; EGFR L858R-T790M, 1 h, room temperature, read-out: IC50 (nM) @L858R-T790M): 582 nM; IC50 ([9]; EGFR L858-C797S, 1 h, room temperature, read-out: IC50 (nM) @L858-C797S): 128 nM; IC50 ([10]; EGFR Del19-C797S, 1 h, room temperature, read-out: IC50 (nM) @Del19-C797S): 25 nM; IC50 ([12]; EGFR Del19, 1 mM ATP, 1 h, room temperature): 29 nM
	> 5000		> 5000	> 5000	> 5000	> 5000	> 5000	> 5000	> 5000								> 5000	3050	977	COCCN(C)c1ccc2nc3n(c2c1)C12CCC(CN(CCOc4c(cnn4C)-c4cc(cc(C)n4)C(=O)N3)C1)C2 (single isomer, unassigned) [Example B46A]	GI50 ([1]; A-431 cells): 7830 nM; GI50 [11, 31]: 492 nM; GI50 [11, 32]: 2500 nM; GI50 [11, 33]: 198 nM; GI50 [11, 34]: 919 nM; GI50 [11, 35]: 7610 nM; GI50 [11, 36]: 497 nM
426	2.3		26	392	4.1	1.6	3	5.1	1.7								4.4	10	2	CCN1CCN(c2ccc3nc4n(c3c2)C23CCC(CN(CCOc5c(cnn5C)-c5cc(cc(C)n5)C(=O)N4)C2)C3)CC1 (single isomer, unassigned) [Example B56B]	GI50 [11, 31]: 2 nM; GI50 [11, 32]: 5 nM; GI50 [11, 33]: 2 nM; GI50 [11, 34]: 2 nM; GI50 [11, 35]: 12 nM; GI50 [11, 36]: 7 nM
